Results from US10865192B2, “Nicotine salts, co-crystals, and salt co-crystal complexes” (priority 2014, dated 2020).
Like-named read-outs stand apart in the source and are kept apart here.

Assays:
[1] = for Relative humidity at which sample deliquesced in GVS (stable until): GVS adsorption; for Relative humidity at which sample deliquesced in GVS (stable until) / On desorption, moisture retained down to / water lost by / Total weight change 0-90% RH / Hygroscopicity / behaviour in GVS experiment: 25° C.; for Behaviour after deliquescence when humidity is reduced / On desorption, moisture retained down to / water lost by: GVS desorption; for XRPD of residue after GVS: residue recovered after GVS isotherm
Procedure: Sorption isotherms were obtained using a SMS DVS Intrinsic moisture sorption analyzer, controlled by DVS Intrinsic Control software v1.0.1.2 (or v 1.0.1.3). The sample temperature was maintained at 25° C. by the instrument controls. The humidity was controlled by mixing streams of dry and wet nitrogen, with a total flow rate of 200 ml/min The relative humidity was measured by a calibrated Rotronic probe (dynamic range of 1.0-100% RH), located near the sample. The weight change, (mass relaxation) of the sample as a function of % RH was constantly monitored by the microbalance (accuracy±0.005 mg).
Typically 5-20 mg of sample was placed in a tared mesh stainless steel basket under ambient conditions. The sample was loaded and unloaded at 40% RH and 25° C. (typical room conditions). A moisture sorption isotherm was performed as outlined below (2 scans giving 1 complete cycle). The standard isotherm was performed at 25° C. at 10% RH intervals over a 0-90% RH range. Data analysis was carried out using Microsoft Excel using DVS Analysis Suite v6.2 (or 6.1 or 6.0).
The sample is recovered after completion of the isotherm and re-analyzed by XRPD.

[2] = exposed to 650° C.
[3] = Static stability at elevated humidity (appearance and XRPD after storage); details: for Static stability 25° C./96% RH: storage at 25° C./96% RH; for Static stability 25° C./96% RH / Static stability 40° C./75% RH: up to 1 week, appearance and XRPD; for Static stability 40° C./75% RH: storage at 40° C./75% RH; for Result (stability of screening fumaric acid salts): Table 8, 40° C./75% RH, 1 day; for Result (stability of screening orotic acid salts): Table 3, XRPD dry and after 1 week at 40° C./75% relative humidity (FIG. 14)

Question: For “(S)-nicotine mono-orotate hemi-hydrate [Salt B]”, which “Relative humidity at which sample deliquesced in GVS (stable until)” value [1] is on record?
Answer: 80% RH then deliquesced On

Question: And the “Relative humidity at which sample deliquesced in GVS (stable until)” value ([1]; listed as Orotate Pattern 2)?
Answer: 80 % RH

Question: And the “Behaviour after deliquescence when humidity is reduced” value [1]?
Answer: re-crystallized

Question: What about the “On desorption, moisture retained down to / water lost by” value [1] of the same compound?
Answer: down to 60% RH XRPD of residue

Question: What about the “On desorption, moisture retained down to / water lost by” value ([1]; listed as Orotate Pattern 2) of the same compound?
Answer: 60 % RH

Question: What about the “Total weight change 0-90% RH” value ([1]; GVS isotherm, 0-90% RH) of the same compound?
Answer: RH = ~60 wt. %, stable until

Question: What about the “XRPD of residue after GVS” value [1] of the same compound?
Answer: Pattern 2 with some Orotate Pattern 1

Question: And the “XRPD of residue after GVS” value ([1]; listed as Orotate Pattern 2)?
Answer: contained some Pattern 1 material

Question: What about the “Nicotine liberated on decomposition (peak areas)” value [2] of the same compound?
Answer: 97 % peak areas

Question: And the “Stability on exposure to high / elevated humidity” value ([3]; high humidity, general statement)?
Answer: not stable to exposure to high humidity

Question: What about the “Static stability 25° C./96% RH” value [3] of the same compound?
Answer: Sticky after 24 hours, deliquesced

Question: What about the “Static stability 25° C./96% RH” value ([3]; listed as Orotate Pattern 2) of the same compound?
Answer: deliquesced

Question: What about the “Static stability 40° C./75% RH” value [3] of the same compound?
Answer: Pattern 2, sticky material

Question: What about the “Static stability 40° C./75% RH” value ([3]; listed as Orotate Pattern 2) of the same compound?
Answer: sticky material

Question: Which results are given for `CN1CCCC1c1cccnc1.O=C(O)/C=C/C(=O)O` (centres unmarked) [Fumarate salt (prepared in THF), nicotine fumarate]?
Answer: Behaviour after deliquescence when humidity is reduced ([1]; fumarate): remains a liquid; Behaviour after deliquescence when humidity is reduced ([1]; listed as Fumarate Pattern 1, fumarate): does not re-crystallize; Weight gain from 0-90% RH in the GVS isotherm ([1]; GVS isotherm, 0-90% RH): 82%; Total weight change 0-90% RH ([1]; GVS isotherm, 0-90% RH): Total weight change 0-90% RH = 82 wt. %; Hygroscopicity / behaviour in GVS experiment ([1]; 0-90% RH, fumarate): wt. %, sample deliquesces and; Hygroscopicity / behaviour in GVS experiment ([1]; 0-90% RH, listed as Fumarate Pattern 1, fumarate): hygroscopic; Nicotine liberated on decomposition (peak areas) [2]: 97 % peak areas; Humidity at which the form deliquesces (elevated humidities) [3]: > 75 % RH

Question: For `CN1CCCC1c1cccnc1.O=C(O)C=CC(=O)O` (centres unmarked) [Formation in neat nicotine], which “Result (stability of screening fumaric acid salts)” value [3] is on record?
Answer: Deliquesced

Question: Which “Result (stability of screening orotic acid salts)” value [3] does the source give for `CN1CCCC1c1cccnc1.O=C(O)c1cc(=O)[nH]c(=O)[nH]1.O=C(O)c1cc(=O)[nH]c(=O)[nH]1` (centres unmarked) [Formation in ethanol] here?
Answer: Stable

Question: With (S)-nicotine bis-orotate [Salt A] as the compound, how does the “Total weight change 0-90% RH” value ([1]; GVS isotherm, 0-90% RH) read?
Answer: RH = 0.8 wt. %, steady change in

Question: What about the “Hygroscopicity / behaviour in GVS experiment” value ([1]; 0-90% RH) of the same compound?
Answer: only slightly hygroscopic

Question: What about the “XRPD of residue after GVS” value [1] of the same compound?
Answer: XRPD of residue showed no

Question: What about the “Thermal stability” value of the same compound?
Answer: thermally stable

Question: What about the “Nicotine liberated on decomposition (peak areas)” value [2] of the same compound?
Answer: 97 % peak areas

Question: And the “Static stability 25° C./96% RH” value [3]?
Answer: Pattern 1, runny material

Question: And the “Static stability 25° C./96% RH” value ([3]; listed as Orotate Pattern 1)?
Answer: runny material

Question: And the “Static stability 25° C./96% RH” value ([3]; listed as bis-orotate salt-co-crystal)?
Answer: runny material

Question: And the “Static stability 40° C./75% RH” value [3]?
Answer: No change

Question: For `CN1CCCC1c1cccnc1.O=C(O)c1cc(=O)[nH]c(=O)[nH]1` (centres unmarked) [Formation in water], which “Result (stability of screening orotic acid salts)” value [3] is on record?
Answer: Stable

Question: With `CN1CCCC1c1cccnc1.O=C(O)c1cc(=O)[nH]c(=O)[nH]1` (centres unmarked) [Grinding] as the compound, how does the “Result (stability of screening fumaric acid salts)” value [3] read?
Answer: Deliquesced
